From patent US5064827A, “Polyhydroxybenzyloxpropanolamines” (Du Pont Merck Pharmaceutical Company, priority 1990, dated 1991)

Tests used:
[1] = target: T1, β-receptor (guinea pig right atria) (Cavia porcellus, UniProt H0W3H1); assay: Beta-blocking activity in vitro, guinea pig right atria (antagonism of isoproterenol-induced rate response); type: cell-based; settings: 60-minute incubation, 37° C, Furchgott method; for Kb: read-out: pA2 Atria (converted)
T1 construct: from tissue; host or cells: guinea pig right atria
T1 sequence (H0W3H1 1-470): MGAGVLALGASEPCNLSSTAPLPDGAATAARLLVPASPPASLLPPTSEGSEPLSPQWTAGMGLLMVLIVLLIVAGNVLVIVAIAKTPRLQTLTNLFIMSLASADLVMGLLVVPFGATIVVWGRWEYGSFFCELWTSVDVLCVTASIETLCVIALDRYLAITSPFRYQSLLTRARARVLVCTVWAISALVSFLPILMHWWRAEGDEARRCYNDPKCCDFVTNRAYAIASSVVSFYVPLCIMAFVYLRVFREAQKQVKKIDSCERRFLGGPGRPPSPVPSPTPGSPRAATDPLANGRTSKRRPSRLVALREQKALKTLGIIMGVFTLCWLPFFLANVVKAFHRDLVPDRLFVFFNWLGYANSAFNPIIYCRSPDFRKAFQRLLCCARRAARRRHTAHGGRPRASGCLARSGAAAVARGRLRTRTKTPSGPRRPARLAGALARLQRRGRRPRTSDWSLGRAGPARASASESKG
Method: Several of the compounds of the present invention were tested for β-blocking activity in vitro using guinea pig right atria and guinea pig tracheal strips mounted in a tissue bath containing oxygenated (95% 02 -5% CO2) Krebs physiological salt solution at 37° C. Each tissue was suspended between a fixed glass rod and a Statham Universal Transducer connected to a Beckman recorder. Atria were allowed to beat spontaneously under a loading tension of approximately 0.5 gm. Intrinsic depressant or stimulant activity was determined for each compound by progressively increasing concentrations in the tissue baths at 60-minute intervals. Tissues were not washed between increments. The maximum concentration showing little or no cardiodepressant activity was chosen for blockade experiments. Changes in rate in response to isoproterenol, a standard β-receptor agonist, were measured in the absence and presence of test compounds. Spiral strips of guinea pig trachea were suspended under 5 gm resting tension and incubated with phentolamine, tropolone and cocaine. Active tension was generated by addition of carbachol (3.0×10^-7 M) and decreases in tension in response to isoproterenol were quantitated. Cumulative concentration-response curves were produced with isoproterenol both before and after 60-minute incubation of test compounds with atria and trachea. Compounds with β-blocking activity shifted concentration-response curves to the right. The blocking potency of test compounds was estimated by computing pA2 values (--log K8) by the method of Furchgott, the Pharmacological Differentiation of Adrenergic Receptors, Ann. N.Y. Acad. Sci., 139:553-570 (1967). […] The degree of cardioselectivity was estimated from the ratio, Kβ trachea/Kβ atria (10^(pA 2^atria-pA 2^trachea)). A ratio greater than one indicates cardioselectivity. Test drugs were dissolved in distilled water and added to the bath (30 mL) in a volume of 10 or 100 μL. All of the test compounds are active β-blockers.

[2] = test system: β-receptor (heart rate response to isoproterenol); assay: Duration and potency of beta-blocking action in vivo (3-hour infusion, isoproterenol challenge, pentobarbital-anesthetized dogs); design: species or system dog
Method: The duration of β-blockage was determined in vivo using pentobarbital-anesthetized dogs instrumented for measurement of heart rate using a Beckman cardiotachometer triggered electronically by a phasic aortic blood pressure signal. Both vagus nerves were severed in the cervical region and the animals were mechanically ventilated. The experimental design used employed a 3-hour infusion of test compound. Bolus doses of isoproterenol (0.5 μg/kg) were used to assess the degree of β-blockage and recovery from β-blockage after […] of the infusion. The doses were spaced at 10-minute intervals and were given before, during and following the infusion of test compounds. The infusion rate was adjusted so that at the end of the 3-hour infusion period the degree of isoproterenol inhibition averaged about 50% of control. Following termination of blocker infusion, percent recovery from β-blockade was computed and the time associated with 80% recovery estimated.

Row | pA2 Atria [1] | Kb [1] | SMILES | further results
1 |  | 0.316 µM | CC(C)(C)NCC(O)COCc1cc(O)cc(O)c1 (stereo not drawn) [Compound 5a] | 
2 |  | 0.2 µM | CC(C)(CNC(=O)C1CCCCC1)NCC(O)COCc1cc(O)cc(O)c1 (stereo not drawn) [Compound 5e] | 
3 |  | 0.0794 µM | CC(C)C(=O)NCC(C)(C)NCC(O)COCc1cc(O)cc(O)c1 (stereo not drawn) [Compound 5c] | 
4 |  | 1 µM | CC(C)(C)NCC(O)COCc1cc(O)c(O)c(O)c1 (stereo not drawn) [Compound 5b] | 
5 |  | 0.0794 µM | CC(C)(CNC(=O)c1ccccc1)NCC(O)COCc1cc(O)cc(O)c1 (stereo not drawn) [Compound 5d] | 

Further lines, the compound ahead of its results:

Row | SMILES | pA2 Atria [1] | Kb [1] | further results
6 | Cc1cc(O)c(O)cc1COCC(O)CNC(C)(C)C (stereo not drawn) [Compound 4c] | 6.0 |  | 
7 | CC(C)(C)NCC(O)COCc1ccc(O)c(O)c1 (stereo not drawn) [Compound 4a] | 6.5 |  | In Vivo Potency ([2]; anesthetized dogs, infusion rate adjusted to about 50% isoproterenol inhibition at end of 3-hour infusion): 112 mcg/k/m; In Vivo % I ([2]; isoproterenol inhibition (isoproterenol 0.5 μg/kg bolus), dogs, 3-hour infusion at the listed potency rate): 45%; DOA (Time for rec. in min.) 50% ([2]; time to 50% recovery from β-blockade after termination of 3-hour infusion, dogs): 5 min; DOA (Time for rec. in min.) 80% ([2]; time to 80% recovery from β-blockade after termination of 3-hour infusion, dogs, estimated): 16 min
8 | CC(C)(C)NCC(O)COCc1cc(O)c(O)cc1F (stereo not drawn) [Compound 4b] | 7.0 |  | 
